Assay results as given in ChEMBL document CHEMBL2331163, “Enhancement of the water solubility of flavone glycosides by disruption of molecular planarity of the aglycone moiety” (J Nat Prod, 2013).
Converted amounts (≈) assume the structure as drawn.

Legend:
[1] = Aqueous solubility of the compound in water after 2 days by HPLC analysis; type: physicochemical
[2] = Lipophilicity, log P of the compound; type: physicochemical; settings: octanol/water

solubility at 48 h [1]	logP [2]	SMILES
231 mg/mL (≈ 359 mM)	0.44	COc1ccc(-c2oc3cc(O[C@@H]4O[C@H](CO[C@@H]5O[C@@H](C)[C@H](O)[C@@H](O)[C@H]5O)[C@@H](O)[C@H](O)[C@H]4O)cc(O)c3c(=O)c2Cl)cc1O
214 mg/mL (≈ 311 mM)	0.61	COc1ccc(-c2oc3cc(O[C@@H]4O[C@H](CO[C@@H]5O[C@@H](C)[C@H](O)[C@@H](O)[C@H]5O)[C@@H](O)[C@H](O)[C@H]4O)cc(O)c3c(=O)c2Br)cc1O
0.0046 mg/mL (≈ 0.00776 mM)	0.84	COc1ccc(-c2cc(=O)c3c(O)cc(O[C@@H]4O[C@H](CO[C@@H]5O[C@@H](C)[C@H](O)[C@@H](O)[C@H]5O)[C@@H](O)[C@H](O)[C@H]4O)cc3o2)cc1 [ACACIIN]

Continued, molecule first:

SMILES	solubility at 48 h [1]	logP [2]
C[C@@H]1O[C@@H](O[C@H]2[C@H](Oc3cc(O)c4c(=O)c(Br)c(-c5ccc(O)cc5)oc4c3)O[C@H](CO)[C@@H](O)[C@@H]2O)[C@H](O)[C@H](O)[C@H]1O	> 100 mg/mL	0.93
COc1ccc(-c2oc3cc(O[C@@H]4O[C@H](CO[C@@H]5O[C@@H](C)[C@H](O)[C@@H](O)[C@H]5O)[C@@H](O)[C@H](O)[C@H]4O)cc(O)c3c(=O)c2Br)cc1	13.8 mg/mL (≈ 20.6 mM)	1.17
COc1ccc(-c2oc3cc(O[C@@H]4O[C@H](CO[C@@H]5O[C@@H](C)[C@H](O)[C@@H](O)[C@H]5O)[C@@H](O)[C@H](O)[C@H]4O)cc(O)c3c(=O)c2O)cc1O	0.0056 mg/mL (≈ 0.00897 mM)	0.06
C[C@@H]1O[C@@H](O[C@H]2[C@H](Oc3cc(O)c4c(=O)cc(-c5ccc(O)cc5)oc4c3)O[C@H](CO)[C@@H](O)[C@@H]2O)[C@H](O)[C@H](O)[C@H]1O [RHOIFOLIN]	0.114 mg/mL (≈ 0.197 mM)	0.71
